From patent US20230416247A1, “DRUG-LIKE MOLECULES AND METHODS FOR THE THERAPEUTIC TARGETING OF MICRORNA-21” (University of Washington, priority 2020, published 2023) come the findings set out here.

Molecules are shown by their SMILES. “Also recorded” adds a separate entry of the source.

What all share (assay type): cell-based, human
For test [1], the system named is mature miR-21 and pre-miR-21 in AGS cells. The test can be described thus: qRT-PCR of mature miR-21 and pre-miR-21 in AGS cells. Conditions: 10 nmoles, 48 hours, relative to DMSO control. Here is the method: (§1) FIGS. 13A-13D compare levels of mature miR-21 and pre-mi-21 measured in gastric adenocarcinoma (AGS) (FIGS. 13A and 13B, respectively) and pancreatic cancer cell line (ASPC 1) (FIGS. 13C and 13D, respectively), normalized to internal controls (U6 or U8 snRNA), in the presence of 10 nmoles of palbociclib (used here as a negative control, not expected to affect microRNA levels) and compounds −0045 and −0052, 48 hours after incubation, relative to DMSO control, and measured by standard qRT-PCR. Statistically significant changes are labeled with asterisks.
(§2) Levels of mature miR-21 and its precursor pre-miR-21 were measured in gastric carcinoma (ASG) and pancreatic (ASPC1) cancer cell lines under conditions where we observed a decrease in proliferation (FIGS. 13A-13D), using the same blind format described above.
(§3) Cell line maintenance. Using the Cancer Cell Line Encyclopedia (CCLE), in-house cancer cell lines were screened to identify cancer and tissue types with varying levels of miR-21 expression. Experiments were performed using the human-derived cell lines AGS (gastric cancer) and AsPC-1 (pancreatic cancer). Cell lines were obtained from the American Type Culture Collection and maintained per instructions from the supplier. AGS were cultured in F12K medium supplemented with 10% FBS. AsPC-1 were cultured in RPMI, with 10% FBS added. All cells were kept at 37° C. in a humidified atmosphere of 5% CO2 and underwent regular mycoplasma testing. All experiments were conducted when cells were 70-80% confluent.
(§4) Quantitative real time PCR analysis. RNA was isolated utilizing Trizol (Invitrogen) and the Direct-zol RNA Miniprep kit (Zymo Research). RNA concentration was assessed with the NanoDrop ND-1000 spectrophotometer (ThermoFisher Scientific). All microRNAs expression was tested in the two representative cell lines using qRT-PCR. Cells were seeded in 6-well plates 24 hours before treatment, at a cell confluency of 50-60%. Each cell line was treated with 10 μM compound or with only the dimethyl sulfoxide (DMSO) solvent. RNA was collected after the 48-hour time point. Expression of miR-21 was assessed utilizing the TaqMan microRNA assay (Applied Biosystems). The complementary DNA (cDNA) was synthesized using the TaqMan Reverse Transcription Reagents kit (Applied Biosystems) and was used with the TaqMan probes and Supermix (BioRad) for qRT-PCR analysis. U6 or U48 were used as internal controls for RNA levels. All experiments were performed in triplicate, with all samples normalized to the internal controls and relative expression levels calculated using the 2^ΔΔCt method.
(Real-time PCR tracks product formation cycle by cycle.)

Test [2] relates to mature miR-10b in ASPC1 cells. The test can be described thus: qRT-PCR of mature miR-10b in ASPC1 cells. Conditions: ASPC1, 10 nmoles, 48 hours, relative to DMSO control. Here is the method: FIGS. 14A-14D compare levels of mature miR-10b and pre-miR-10b measured in gastric adenocarcinoma (AGS) (FIGS. 14A and 14B, respectively) and pancreatic cancer cell line (ASPC 1) (FIGS. 14C and 14D, respectively), normalized to internal controls (U6 or U8 snRNA), in the presence of 10 nmoles of palbociclib (a negative control not expected to directly affect miRNA levels) and compounds −0045 and −0052, 48 hours after incubation, relative to DMSO control, and measured by standard qRT-PCR. We notice that levels of pre-miR-10b are very low in both cell lines, rendering the data very uncertain. Statistically significant changes are labeled with asterisks.
In order to investigate whether inhibition was specific to miR-21, levels of mature miR-10b and pre-miR-10b were examined in the same cell lines (FIGS. 14A-14D); this is another oncogenic microRNA implicated in metastasis. […]
Quantitative real time PCR analysis. […] RNA concentration was assessed with the NanoDrop ND-1000 spectrophotometer (ThermoFisher Scientific). […] Expression of miR-21 was assessed utilizing the TaqMan microRNA assay (Applied Biosystems). […] All experiments were performed in triplicate, with all samples normalized to the internal controls and relative expression levels calculated using the 2^ΔΔCt method.

Test [3] concerns pancreatic (ASPC1) cancer cell line. The test can be described thus: MTS proliferation assay, ASPC1. Conditions: for viability (anti-proliferative activity), MTS: as a function of time, triplicate.
Description: FIGS. 10A-10F compare anti-proliferative activity of 10 nmoles of compounds −0045 and −0052 against gastric (AGS) (FIGS. 10B and 10C, respectively) and pancreatic (ASPC1) (FIGS. 10E and 10F, respectively) cancer cell lines, as measured as a function of time and compared to palbociclib (−000) (FIGS. 10A-AGS; and 10D-ASPC1) using standard MTS assays in the indicated cell lines; results were in triplicate with reported experimental uncertainty.
FIGS. 11A-11F compare anti-proliferative activity of 5 nmoles of compounds −0045 and −0052 against gastric (AGS) (FIGS. 11B and 11C, respectively) and pancreatic (ASPC1) (FIGS. 11E and 11F, respectively) cancer cell lines, as measured as a function of time and compared to palbociclib (−000) (FIGS. 11A-AGS; and 11D-ASPC1), using standard MTS assays in the indicated cell lines; results were in triplicate with reported experimental uncertainty.
The anti-proliferative activity of compounds −0045 and −0052 in two cell lines characterized by high levels of miR-21 (gastric adenocarcinoma (AGS) and pancreatic (ASPC1) cancer origin) was determined. These experiments were conducted in a double-blind format, without knowledge of the identity or binding activity of the compounds, to avoid any unintentional bias. […] Viability in the presence of both palbociclib and compound −0052 is decreased after approximately 72-96 hrs to a statistically significant extent (data points marked with asterisks are statistically significant).
as §3
Proliferation assay. The impact of the compound on cellular proliferation was assessed, with 5,000 cells in each cell line seeded in replicates of 6 in a 96 well plate and treated with DMSO or with compounds. After 48 hours, cells were treated with the MTS reagent and optical density was read to generate dose-response curves.
A general note: Tetrazolium dyes change colour on reduction, which living cells bring about.

A further test relates to PDCD4 in AGS cells. The test can be described thus: Western blot of PDCD4 in AGS cells. Conditions: 48 hours of incubation, relative to DMSO control, normalized to β-actin. Here is the method:
Data in FIG. 16B are reported as enhancement of PDCD4 levels, relative to DMSO control (no compound added).
Western blot analysis. Western blot analysis was conducted according to standard protocols. Briefly, proteins were collected from cells and lysed and the Bradford assay was used to measure protein concentrations. Quantification of protein expression was conducted using the image analysis software ImageJ.

Test [4] concerns mature miR-21 and pre-miR-21 in ASPC1 cells. The test can be described thus: qRT-PCR of mature miR-21 and pre-miR-21 in ASPC1 cells. Conditions: ASPC1, 10 nmoles, 48 hours, relative to DMSO control. Here is the method:
as §1, §2, §3, §4

For `O=c1[nH]c(Nc2ccc(N3CCNCC3)cn2)nc2cnccc12` [Compound 30], the “decrease in mature miR-21 levels” value in test [1] and in test [4] was 40% each time. In addition, the pre-miR-21 levels entry in test [1] and in test [4] was “reduction in pre-miR-21 levels” each time. For the same compound, the “reduction of levels of mature miR-10b” value in test [2] is given as “about 2 fold”. For the same compound, the “viability (anti-proliferative activity), MTS” value in test [3] (ASPC1, 5 nmoles of compound) is recorded as “reduce the viability of both cell lines to a statistically significant extent”; in test [3] (ASPC1, 10 nmoles of compound), “reduce the viability of both cell lines to a statistically significant extent”. The “cell killing activity, MTS over 6 days” value in test [3] (ASPC1, both concentrations tested (10 and 5 nmols), double-blind) is “Cell killing activity”. The “levels of PDCD4 (Western blot)” value with PDCD4 in AGS cells (listed as −0052) is listed as “an increase was observed; also recorded: increase levels of PDCD4”.

Turning to `O=c1[nH]c(Nc2ccc(N3CCNCC3)cn2)nc2cccnc12` [Compound 25], the “decrease in mature miR-21 levels” value in test [1] and in test [4] was 40% throughout. Moreover, the pre-miR-21 levels result in test [1] and in test [4] was “reduction in pre-miR-21 levels” in each case. Further, in test [2], the “change in levels of mature miR-10b” value was “smaller and not statistically significant changes”. For the same compound, the “viability (anti-proliferative activity), MTS” value in test [3] (ASPC1, 5 nmoles of compound) was “does not”; in test [3] (ASPC1, 10 nmoles of compound), “does not”. In addition, the “levels of PDCD4 (Western blot)” value in the test on PDCD4 in AGS cells (listed as −0045) is given as “an increase was observed; also recorded: increase levels of PDCD4”.
